Data: publication PMC12446476 (Nature Communications, 2025)

Test system: N. gonorrhoeae
Assay: N. gonorrhoeae murine vaginal infection model, efficacy
Assay type: in vivo, mouse
Method: The N. gonorrhoeae female mouse vaginal model[45] was performed in accordance with the Guide for Care and Use of Laboratory Animals[75]. Animal rooms were maintained at a temperature range of 20–24 °C and humidity between 30% and 70%, with 12 h light/dark cycles. Ovariectomized BALB/c female mice (5–6 weeks, BioLASCO Taiwan Co., Ltd.) were treated with estradiol (0.23 mg/mouse) two days before infection and on the day of infection. Ovariectomized mice were used to avoid staging mice before treating them with estradiol. Beginning two days prior to infection and maintained until the end of the study, animals were treated twice daily with streptomycin (1.2 mg/mouse) and vancomycin (0.6 mg/mouse) each via intraperitoneal (IP) injection and received trimethoprim sulfate in the drinking water (0.4 mg/mL) to control vaginal microflora. Animals were anesthetised with pentobarbital (80 mg/kg), the vagina was rinsed with 50 mM HEPES (pH 7.4), and then inoculated with N. gonorrhoeae in pre-warmed PBS (0.02 mL/mouse containing ~1 × 10^5 CFU).
Control groups received either a single IP injection of ceftriaxone or 5% dextrose (vehicle) twice daily. Animals were sacrificed via CO2 asphyxiation at either 2 h (baseline), 26 and/or 50 h post-infection. Vaginal lavage was performed twice with 200 µL GC broth containing 0.05% saponin to recover bacteria. Bacterial burden in the lavage fluids was determined by performing 10-fold serial dilutions and plating on chocolate agar plates. Four strains were assessed using the model; ATCC 700825 is naturally streptomycin-resistant, whereas AR Bank0179-15, AR Bank0181-17 and WHO X-07 are derivatives of AR Bank0179, AR Bank0181 and WHO X, respectively, that were engineered for streptomycin resistance for use in the model.

Cc1c(CN(C)C(=O)/C=C/c2cnc3c(c2)N[C@H](C)[C@H](O)C(=O)N3)oc2ccccc12 [Debio 1453]
Mean Diff. 0h vs. treatment, log10 CFU (AR Bank0179-15, 20 µg/mL Debio 1453, 24h): -1.082 | Mean Diff. 0h vs. treatment, log10 CFU (AR Bank0179-15, 20 µg/mL Debio 1453, 48h): -1.16 | Mean Diff. 0h vs. treatment, log10 CFU (AR Bank0179-15, 40 µg/mL Debio 1453, 24h): -0.242 | Mean Diff. 0h vs. treatment, log10 CFU (AR Bank0179-15, 40 µg/mL Debio 1453, 48h): 1.58 | Mean Diff. 0h vs. treatment, log10 CFU (AR Bank0179-15, 60 µg/mL Debio 1453, 24h): 1.644 | Mean Diff. 0h vs. treatment, log10 CFU (AR Bank0179-15, 60 µg/mL Debio 1453, 48h): 2.864 | Mean Diff. 0h vs. treatment, log10 CFU (AR Bank0179-15, 80 µg/mL Debio 1453, 24h): 1.958 | Mean Diff. 0h vs. treatment, log10 CFU (AR Bank0179-15, 80 µg/mL Debio 1453, 48h): 2.964 | Mean Diff. 0h vs. treatment, log10 CFU (AR Bank0179-15, 24h): 3.186 | Mean Diff. 0h vs. treatment, log10 CFU (AR Bank0179-15, 48h): 3.186 | Mean Diff. 0h vs. treatment, log10 CFU (AR Bank0181-17, 40 µg/mL Debio 1453, 24h): -1.694 | Mean Diff. 0h vs. treatment, log10 CFU (AR Bank0181-17, 40 µg/mL Debio 1453, 48h): -0.796 | Mean Diff. 0h vs. treatment, log10 CFU (AR Bank0181-17, 60 µg/mL Debio 1453, 24h): -1.094 | Mean Diff. 0h vs. treatment, log10 CFU (AR Bank0181-17, 60 µg/mL Debio 1453, 48h): -0.998 | Mean Diff. 0h vs. treatment, log10 CFU (AR Bank0181-17, 80 µg/mL Debio 1453, 24h): -0.986 | Mean Diff. 0h vs. treatment, log10 CFU (AR Bank0181-17, 80 µg/mL Debio 1453, 48h): -0.852 | Mean Diff. 0h vs. treatment, log10 CFU (AR Bank0181-17, 320 µg/mL Debio 1453, 24h): 3.42 | Mean Diff. 0h vs. treatment, log10 CFU (AR Bank0181-17, 320 µg/mL Debio 1453, 48h): 3.56 | Mean Diff. 0h vs. treatment, log10 CFU (AR Bank0181-17, 24h): 0.842 | Mean Diff. 0h vs. treatment, log10 CFU (AR Bank0181-17, 48h): 1.134 | Mean Diff. 0h vs. treatment, log10 CFU (ATCC 700825, 20 µg/mL Debio 1453, 24h): -0.874 | Mean Diff. 0h vs. treatment, log10 CFU (ATCC 700825, 20 µg/mL Debio 1453, 48h): -1.386 | Mean Diff. 0h vs. treatment, log10 CFU (ATCC 700825, 40 µg/mL Debio 1453, 24h): -0.322 | Mean Diff. 0h vs. treatment, log10 CFU (ATCC 700825, 40 µg/mL Debio 1453, 48h): -0.946 | Mean Diff. 0h vs. treatment, log10 CFU (ATCC 700825, 60 µg/mL Debio 1453, 24h): 1.296 | Mean Diff. 0h vs. treatment, log10 CFU (ATCC 700825, 60 µg/mL Debio 1453, 48h): 2.468 | Mean Diff. 0h vs. treatment, log10 CFU (ATCC 700825, 80 µg/mL Debio 1453, 24h): 2.796 | Mean Diff. 0h vs. treatment, log10 CFU (ATCC 700825, 80 µg/mL Debio 1453, 48h): 3.082 | Mean Diff. 0h vs. treatment, log10 CFU (ATCC 700825, 24h): 2.942 | Mean Diff. 0h vs. treatment, log10 CFU (ATCC 700825, 48h): 3.082 | Mean Diff. 0h vs. treatment, log10 CFU (WHO X-07, 40 µg/mL Debio 1453, 24h): -1.944 | Mean Diff. 0h vs. treatment, log10 CFU (WHO X-07, 40 µg/mL Debio 1453, 48h): -2.102 | Mean Diff. 0h vs. treatment, log10 CFU (WHO X-07, 60 µg/mL Debio 1453, 24h): -1.81 | Mean Diff. 0h vs. treatment, log10 CFU (WHO X-07, 60 µg/mL Debio 1453, 48h): -1.666 | Mean Diff. 0h vs. treatment, log10 CFU (WHO X-07, 80 µg/mL Debio 1453, 24h): -1.492 | Mean Diff. 0h vs. treatment, log10 CFU (WHO X-07, 80 µg/mL Debio 1453, 48h): -1.246 | Mean Diff. 0h vs. treatment, log10 CFU (WHO X-07, 320 µg/mL Debio 1453, 24h): 3.01 | Mean Diff. 0h vs. treatment, log10 CFU (WHO X-07, 320 µg/mL Debio 1453, 48h): 3.322 | Mean Diff. 0h vs. treatment, log10 CFU (WHO X-07, 24h): 2.532 | Mean Diff. 0h vs. treatment, log10 CFU (WHO X-07, 48h): 3.114 | reduction compared to the start of treatment (0 h) (each of four strains, dosed as Debio 1453 P, limit of detection by 48 h for at least one dose level): ~ 3 log10CFU/mL
